According to PMC8284440, “Toward New Transmission-Blocking Combination Therapies: Pharmacokinetics of 10-Amino-Artemisinins and 11-Aza-Artemisinin and Comparison with Dihydroartemisinin and Artemether” (Antimicrobial Agents and Chemotherapy, 2021):
Like-named read-outs stand apart in the source and are kept apart here.

Experiments:
P. falciparum W2 [1] = test system: P. falciparum W2; set-up: method as in ref 4 (supplement; main text 62); details: Table S2, ± SEM; ref 4 (supplement; main text 62); read-out: Antimalarial activities IC50 W2; cited from earlier work
P. falciparum TM91-C235 = test system: P. falciparum TM91-C235; set-up: method as in ref 5 (supplement; main text 63); details: CQ and mefloquine resistant; ref 5 (supplement; main text 63); read-out: Antimalarial activities IC50 TM91-C235; cited from earlier work
P. falciparum NF54 [2] = test system: P. falciparum NF54; set-up: method as in ref 4 (supplement; main text 62); details: Table S2, ± SEM; ref 4 (supplement; main text 62); read-out: Antimalarial activities IC50 NF54; cited from earlier work
P. falciparum W2 [3] = test system: P. falciparum W2; set-up: method as in ref 5 (supplement; main text 63); details: CQ resistant; ref 5 (supplement; main text 63); read-out: Antimalarial activities IC50 W2; cited from earlier work
[4] = test system: late stage (>90% stage IV and V) P. falciparum NF54 gametocytes; details: cited from earlier work
[5] = test system: early stage (>90% stage I-III) P. falciparum NF54 gametocytes; details: cited from earlier work
P. falciparum TM-C2B = test system: P. falciparum TM-C2B; set-up: method as in ref 5 (supplement; main text 63); details: atovaquone and CQ resistant; ref 5 (supplement; main text 63); read-out: Antimalarial activities IC50 TM-C2B; cited from earlier work
P. falciparum 7G8 = test system: P. falciparum 7G8; set-up: method as in ref 5 (supplement; main text 63); details: CQ resistant; ref 5 (supplement; main text 63); read-out: Antimalarial activities IC50 7G8; cited from earlier work
P. falciparum TM93-C1088 = test system: P. falciparum TM93-C1088; set-up: method as in ref 5 (supplement; main text 63); details: atovaquone and CQ resistant; ref 5 (supplement; main text 63); read-out: Antimalarial activities IC50 TM93-C1088; cited from earlier work
P. falciparum K1 [6] = test system: P. falciparum K1; set-up: method as in ref 4 (supplement; main text 62); details: Table S2, ± SEM; ref 4 (supplement; main text 62); read-out: Antimalarial activities IC50 K1; cited from earlier work
murine cerebral malaria = test system: murine cerebral malaria; set-up: method as in PMID 20691118; details: prescribed low dose levels; cited from earlier work
P. falciparum NF54 [7] = test system: P. falciparum NF54; set-up: method as in ref 1 and 2 (supplement; main text 47, 48); details: Table S1, ± SEM; ref 1 and 2 (supplement; main text 47, 48); cited from earlier work
[8] = test system: Chinese hamster ovary (CHO) cells; details: cited from earlier work
P. falciparum W2 [9] = test system: P. falciparum W2; set-up: method as in ref 1 and 2 (supplement; main text 47, 48); details: Table S1, ± SEM; ref 1 and 2 (supplement; main text 47, 48); cited from earlier work
[10] = Preliminary PK assessment in the murine model (toxicity); format: in vivo
Excerpt: Overall, artemiside, artemisone, and the arylurea are the frontrunners in terms of global efficacies and relatively low toxicities in vitro. However, expression of therapeutic efficacy depends not only on biological activity but also on pharmacokinetic (PK) properties. This becomes important for the envisaged drug combinations ([67]). We report here on the in vitro absorption, distribution, metabolism, and excretion (ADME) properties and PK measurement in a murine model of the compounds of Fig. 2. […] The data are directly compared to those of DHA and artemether. An evaluation of the compounds to be taken forward is then presented.

P. falciparum K1 [11] = test system: P. falciparum K1; set-up: method as in ref 1 and 2 (supplement; main text 47, 48); details: Table S1, ± SEM; ref 1 and 2 (supplement; main text 47, 48); cited from earlier work
[12] = test system: liver stage P. berghei ANKA GFP-Luc-SMcon sporozoites; set-up: method as in ref 2 (supplement; main text 48); details: ref 2 (supplement; main text 48), cited from earlier work; for IC50: 48 h, ± SD
HepG2 = details: cited from earlier work
P. falciparum D6 = test system: P. falciparum D6; set-up: method as in ref 5 (supplement; main text 63); details: CQ sensitive; ref 5 (supplement; main text 63); read-out: Antimalarial activities IC50 D6; cited from earlier work
[13] = set-up: method as in PMID 25759576; details: i.v., mouse; cited from earlier work
[14] = set-up: method as in PMID 25759576; details: p.o., mouse; cited from earlier work
[15] = Table S3, ± SEM, ref 1 and 2 (supplement; main text 47, 48), read-out: Late Stage (LG, Luc 72 h) IC50
[16] = Table S3, ± SEM, ref 1 and 2 (supplement; main text 47, 48), read-out: Early Stage (EG, Luc 48 h) IC50

In the case of `C[C@H]1[C@H](OC(=O)CCC(=O)O)O[C@@H]2O[C@@]3(C)CC[C@H]4[C@H](C)CC[C@@H]1[C@@]24OO3` [Artesunate 4, artesunate], the IC50 (P. falciparum W2 [1]) is given as 0.0024 ± 0.0002 µM, the IC50 (P. falciparum TM91-C235) is given as 0.0029 ± 0.0014 µM and the IC50 (P. falciparum NF54 [2]) is given as 0.003 ± 0.00029 µM. For the same compound, the IC50 (P. falciparum W2 [3]) was 0.003 ± 0.0016 µM, the IC50 ([4]; Table S4, n = 1, ref 4 (supplement; main text 62), read-out: Late stage IC50 (Luciferase 72 h)) was 0.171 µM and the IC50 ([5]; Table S4, ± SEM, n = 3, ref 4 (supplement; main text 62), read-out: Early stage IC50 (Luciferase 48 h)) was 0.0628 ± 0.00314 µM. For the same compound, the IC50 (P. falciparum TM-C2B) was 0.0025 ± 0.0005 µM, the IC50 (P. falciparum 7G8) was 0.0015 ± 0.0002 µM and the IC50 (P. falciparum TM93-C1088) was 0.0014 ± 0.0001 µM. For the same compound, the IC50 (P. falciparum K1 [6]) was 0.00326 ± 0.0002 µM and the “Cure of murine cerebral malaria” value (murine cerebral malaria) was “no cure”.
For `C[C@H]1[C@H](Nc2ccc(F)cc2)O[C@@H]2O[C@@]3(C)CC[C@H]4[C@H](C)CC[C@@H]1[C@@]24OO3` [Arylamine 8], the IC50 (P. falciparum NF54 [7]) is listed as 0.0013 ± 0.0006 µM, the EC50 ([8]; read-out: Cytotoxicity EC50 CHO, MTT, ±SD, ref 1 and 2 (supplement; main text 47, 48)) is listed as 2.9 ± 1.4 µM and the IC50 (P. falciparum W2 [9]) is listed as 0.003 ± 0.001 µM. For the same compound, the IC50 [4, 15] was 0.0164 ± 0.00638 µM, the IC50 [5, 16] was 0.0382 ± 0.009 µM and the “Toxicity in preliminary PK assessment” value [10] was “untoward toxicity”. The IC50 (P. falciparum K1 [11]) was 0.00064 ± 0.0001 µM.
In the case of `O=C1C(O)=C([C@H]2CC[C@H](c3ccc(Cl)cc3)CC2)C(=O)c2ccccc21` [Atovaquone], the IC50 (P. falciparum TM91-C235) is given as 0.0022 ± 0.0007 µM, the IC50 (P. falciparum TM-C2B) is given as 31.9 µM and the IC50 (P. falciparum 7G8) is given as 0.0031 ± 0.0009 µM. For the same compound, the IC50 (P. falciparum TM93-C1088) was 18.8 µM, the IC50 [12] was 0.00252 ± 0.000997 µM and the Maximum inhibition % ([12]; at 0.5 µM) was 94.85±2.76%. For the same compound, the EC50 (HepG2) was greater than 0.25 µM.
In the case of `CCN(CC)CCCC(C)Nc1ccnc2cc(Cl)ccc12` (stereo not drawn) [Chloroquine], the IC50 (P. falciparum NF54 [7]) is given as 0.01 ± 0.003 µM, the IC50 (P. falciparum D6) is given as 0.016 ± 0.002 µM and the IC50 (P. falciparum TM91-C235) is given as 0.07 ± 0.012 µM. The IC50 (P. falciparum W2 [3]) was 0.195 ± 0.07 µM, the IC50 (P. falciparum TM-C2B) was 0.095 ± 0.023 µM and the IC50 (P. falciparum 7G8) was 0.084 ± 0.018 µM. For the same compound, the IC50 (P. falciparum TM93-C1088) was 0.36 ± 0.038 µM and the IC50 (P. falciparum K1 [11]) was 0.154 ± 0.014 µM.
For `OC(c1cc(C(F)(F)F)nc2c(C(F)(F)F)cccc12)C1CCCCN1` (stereo not drawn) [Mefloquine MFQ, Mefloquine], the IC50 (P. falciparum TM91-C235) is listed as 0.107 ± 0.041 µM, the IC50 (P. falciparum TM-C2B) is listed as 0.13 ± 0.051 µM and the IC50 (P. falciparum 7G8) is listed as 0.0054 ± 0.0017 µM. For the same compound, the IC50 (P. falciparum TM93-C1088) was 0.016 ± 0.005 µM.
For `CN(C)c1ccc2nc3ccc(=[N+](C)C)cc-3sc2c1` [Methylene Blue, reference compound], the IC50 (P. falciparum NF54 [7]) is listed as 0.005 ± 0.0008 µM, the EC50 [8] is listed as 52.6 ± 4.5 µM and the IC50 (P. falciparum W2 [9]) is listed as 0.00513 ± 0.00031 µM. The IC50 [4, 15] was 0.143 µM, the IC50 [5, 16] was 0.095 µM and the IC50 (P. falciparum K1 [11]) was 0.00645 ± 0.0003 µM.
In the case of `COc1ccc(C[C@H](N)C(=O)N[C@H]2[C@@H](O)[C@H](n3cnc4c(N(C)C)ncnc43)O[C@@H]2CO)cc1` [Puromycin], the IC50 [12] is listed as 0.0227 ± 0.00453 µM, the Maximum inhibition % ([12]; at 5 µM) is listed as 110±4.24% and the EC50 (HepG2) is listed as 0.117 µM.
For `COc1cc(C)c2c(Oc3cccc(C(F)(F)F)c3)c(OC)cc(NC(C)CCCN)c2n1` (stereo not drawn) [Tafenoquine], the AUC [13] is given as 2,363 ± 146 min/μmol/liter, the CLint [13] is given as 1.84 mL/min/kg and the V [13] is given as 2.34 ± 0.0 L/kg. The t1/2 [13] was 43.7 ± 1.5 h, the AUC [14] was 11,368 ± 1,232 min/μmol/liter and the Cmax [14] was 3.06 ± 0.37 µM. The F [14] was 55 ± 2% and the Tmax [14] was 9.0 ± 1.0 h.
